The source of these data is patent publication US12691143B2, “Method for treating cancer” (priority 2020, dated 2026).

In assay [1] the test system is SC14 (SW1710 derivative with ERCC2 P463L mutation). Briefly: In vitro drug sensitivity assay. The note with it: ERCC2-mutant SC14 line compared with SW1710. The class given is cell-based. An excerpt:
(§1) Bladder cancer cell lines were purchased from ATCC. The KE1 bladder cancer cell line is a derivative of KU19-19 in which an ERCC2 T484 mutation has been introduced by CRISPR/Cas9 gene editing as previously described (6). The MDA-MB-468 breast cancer cell line and its ERCC4-complemented derivative have been previously described (35). Small interfering RNAs (siRNAs) targeting specific NER genes as well as a non-targeting siRNA (siNTC) were purchased from Integrated DNA Technologies Inc. (Coralville, IA, USA; see Table 9 for sequences). Cells were seeded in 6-well plates and grown to 50% confluency. A transfection mixture containing siRNA diluted to a final concentration of 30 nM in Opti-MEM media containing Lipofectamine 3000 (Life Technologies; Carlsbad, CA) was then added to cells. After 48 hours, cells were trypsinized and re-aliquoted to separate wells and transfected with 15 nM siRNA for 24 hours immediately prior to viability assays performed as described below. […]
(§2) Cells were seeded in either 96-well (5,000 cells/well) or 24-well (20,000 cells/well) plates. […] Plates were scanned using a luminescence microplate reader (BioTek). […]

For assay [2], the system named is KU19-19 cells. In words: Irofulven sensitivity after siRNA depletion of NER genes. The class given is cell-based.
Text: as §1, §2

Assay [3] has as its system KE1 cells (NER-deficient). Briefly: Immunoblotting after irofulven treatment. Format: cell-based. Here is the method:
Cells were lysed with ice-cold RIPA buffer supplemented with protease and phosphatase inhibitors (Roche). Samples were then sonicated and protein concentrations were determined using the Bradford assay. Sample buffer (Bio-Rad) was added and samples were then denatured at 90° C. for 10 mins. Samples were then loaded in NuPAGE™ protein gels (Thermo Fisher Scientific) and run at 90V for 2-3 hours. The gels were then transferred to nitrocellulose membranes at 30V overnight. Membranes were blocked for 30 mins in 5% milk in TBS buffer. Sections of the membrane corresponding to the appropriate molecular weights were stained overnight in primary antibodies prepared in 1% milk in TBST: XPF (1:700, clone D3G8C rabbit mAB, Cell Signaling); cleaved caspase 3 (1:1000, clone D175, rabbit mAB, Cell Signaling); total and cleaved PARP (1:1000, rabbit mAB, Cell Signaling); phospho-H2AX Ser139 (1:1000, clone JBW301 mouse mAB, Millipore); β-tubulin (1:1000, mouse mAB, Santa Cruz Technologies); Rpb1 CTD (1:1000, clone 4H8 Mouse mAb, Cell Signaling). A Licor Odyssey Infrared Imaging System was used for signal detection using IRDYE-conjugated secondary antibodies (LI-COR Biosciences).
Cells were lysed with ice-cold RIPA buffer supplemented with protease and phosphatase inhibitors (Roche). Samples were then sonicated and protein concentrations were determined using the Bradford assay. […]

In assay [4] the test system is non-tumor cell lines with a TC-NER or common NER pathway gene defect. The note with it: cited from earlier work.

SMILES strings stand for the structures. Entries after “also recorded” stand apart in the source; their conditions may differ.

For the compound `CC1=C(CO)C2=C(C)C3(CC3)[C@@](C)(O)C(=O)C2=C1` [irofulven], the drug sensitivity entry in assay [1] is given as “significantly increased sensitivity”. Moreover, the “irofulven sensitivity after gene depletion” value in assay [2] (siRNA depletion of GG-NER gene DDB2) was “minimal impact”; in assay [2] (siRNA depletion of TC-NER gene ERCC6 or common NER gene ERCC3) it was “significantly higher irofulven sensitivity; also recorded: sufficient to increase irofulven sensitivity”. Further, in assay [3] (following irofulven treatment, KE1), the “RNA polymerase level (immunoblot)” value was “time-dependent loss”. Further, the “phospho-H2AX (γH2AX), cleaved PARP and cleaved caspase-3 (immunoblot)” value in assay [3] (irofulven-treated NER-deficient cells) is reported as “accumulation”. Also, the “toxicity to cells from patients with inactivating mutations in a TC-NER or common NER gene” value in assay [4] is “highly toxic”.
